From patent US12195427B2, “MASP-2 inhibitors and methods of use” (priority 2018, dated 2025)

Target: MASP-2 CCP2-SP (Homo sapiens (Human), UniProt O00187)
Assay: MASP-2 co-crystallization, X-ray crystallography and structure analysis (H-bonds, van der Waals contacts);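 for Ligand-pharmacophore element distance, pharmacophore element C2: distance from averaged pharmacophore element to bound ligand; missing value means element absent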;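 for Ligand-pharmacophore element distance, pharmacophore element C3: distance from averaged pharmacophore element to bound ligand; missing value means element absent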;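 for Ligand-pharmacophore element distance, pharmacophore element C4: distance from averaged pharmacophore element to bound ligand; missing value means element absent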;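 for Ligand-pharmacophore element distance, pharmacophore element C5: distance from averaged pharmacophore element to bound ligand; missing value means element absent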
Parameters: van der Waals contact distance, MASP-2 HIS 483 atom CD2 / van der Waals contact distance, MASP-2 HIS 483 atom NE2 / van der Waals contact distance, SER 654 C to compound atom / van der Waals contact distance, SER 654 O to compound atom / van der Waals contact distance, TRP 655 C to compound atom / van der Waals contact distance, MASP-2 GLY 528 atom CA / van der Waals contact distance TRP 655 atom CZ3 / van der Waals contact distance TRP 655 atom N / van der Waals contact distance TRP 655 atom CE3 / van der Waals contact distance GLY 656 atom C / van der Waals contact distance GLY 656 atom CA / van der Waals contact distance GLY 656 atom O / van der Waals contact distance, MASP-2 TYR 607 atom CD1 / van der Waals contact distance, MASP-2 PRO 606 atom O / d(C3,CA1) / d(CA1,N1)2 / d(H4,O1) / d(H4,O2) / d(O1,O2) / d(CA1,O2) / d(CA6,O1) / d(CA6,O2) / d(CA1,C5) / d(O2,H3) / d(N2,C2) / d(CA5,N2) / d(N2,C4) / d(N2,C6) / d(N2,CA3) / d(N2,O3) / d(O4,H2): unit not given beside the values
Settings: for Ligand-pharmacophore element distance, pharmacophore element C2 / Ligand-pharmacophore element distance, pharmacophore element C3 / Ligand-pharmacophore element distance, pharmacophore element C4 / Ligand-pharmacophore element distance, pharmacophore element C5 / Ligand-pharmacophore element distance, pharmacophore element C6 / Ligand-pharmacophore element distance, pharmacophore element C7 / Ligand-pharmacophore element distance, pharmacophore element CA1 / Ligand-pharmacophore element distance, pharmacophore element CA2 / Ligand-pharmacophore element distance, pharmacophore element CA3 / Ligand-pharmacophore element distance, pharmacophore element CA4 / Ligand-pharmacophore element distance, pharmacophore element CA5 / Ligand-pharmacophore element distance, pharmacophore element CA6: Table A4-1; for d(N2,CA2) / d(O2,H3) / d(O2,N2) / d(N2,C2): Table A5-2 pharmacophore distance, S3/S4 region; for a(O1, O2, H3) / a(O1, O2, N2) / a(O2, N2, CA2) / a(O2, N2, C2): Table A6-2 pharmacophore angle
Source text: This example illustrates the preparation of recombinant MASP-2 protein, based on UniProt O00187, human mannan-binding lectin serine protease 2. Expression constructs for human MASP-2 CCP2-SP and CCP2-SP-6HIS were generated for recombinant expression in E. coli cells.
Typically, crystallization hits were obtained by screening against […] 96-well crystallization reagent kits (GRAS6, GRAS2, Hampton Research; MORPHEUS, Molecular Dimensions; Wizard 1&2 Cryo, Rigaku Reagents) and crystal growth was inspected by optical microscopy. Crystals were used directly or further optimized for X-ray diffraction. Crystals were captured with cryogenic loops and dipped into liquid nitrogen directly or cryoprotected with a 20% glycerol in crystallization formulation before flash-cooling in liquid nitrogen.
Thereafter crystals are transferred once or twice for soaking within the crystallization solution containing the MASP-2 inhibitor.
Crystals were diffracted with synchrotron X-rays of […] and X-ray diffraction datasets were collected at beamlines SSRL BL9-2, BL14-1, BL12-2 as well as ALS sector 5 using Dectris Pilatus and Eiger detectors. Structures were determined by molecular replacement using portions of the structure 1Q3X as search models and partially refined with Buster 2.10.2 or Refmac 5.8. […] When multiple ligand poses were observed, for instance arising from multiple molecules in the asymmetric unit or refined dual poses within the same molecule, only one pose was selected and analyzed.
LigPlot+ calls these ‘nonbonded contacts’ or ‘hydrophobic contacts’. Despite the name, there are atom pairings that include possible H-bonds. Thus, in some instances, the Table A2 also contains H-bond interactions.

[1] = Table A5-1 pharmacophore: distance between elements, S2/S1 region
[2] = Table A7-1, between pharmacophore elements of the bound compound
[3] = Table A7-2, between pharmacophore elements of the bound compound

Chain of MASP-2 CCP2-SP (O00187 445-686): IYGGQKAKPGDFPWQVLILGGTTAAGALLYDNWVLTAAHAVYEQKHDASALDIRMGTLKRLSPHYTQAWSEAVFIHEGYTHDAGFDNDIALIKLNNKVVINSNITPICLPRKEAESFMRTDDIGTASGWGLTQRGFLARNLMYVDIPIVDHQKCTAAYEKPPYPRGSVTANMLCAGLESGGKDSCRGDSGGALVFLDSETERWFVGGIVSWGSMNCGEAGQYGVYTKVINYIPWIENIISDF
Chain of MASP-2 CCP2-SP (O00187 364-432 partner): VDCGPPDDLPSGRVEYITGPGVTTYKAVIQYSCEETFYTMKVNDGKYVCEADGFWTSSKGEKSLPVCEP

| SMILES | Ligand-pharmacophore element distance, pharmacophore element C2 | Ligand-pharmacophore element distance, pharmacophore element C3 | Ligand-pharmacophore element distance, pharmacophore element C4 | Ligand-pharmacophore element distance, pharmacophore element C5 | Ligand-pharmacophore element distance, pharmacophore element C6 | Ligand-pharmacophore element distance, pharmacophore element C7 | Ligand-pharmacophore element distance, pharmacophore element CA1 | Ligand-pharmacophore element distance, pharmacophore element CA2 | Ligand-pharmacophore element distance, pharmacophore element CA3 | Ligand-pharmacophore element distance, pharmacophore element CA4 | Ligand-pharmacophore element distance, pharmacophore element CA5 | Ligand-pharmacophore element distance, pharmacophore element CA6 | d(CA1,O1) [1] | d(CA1,O2) [1] | d(H4,O1) [1] | d(H4,O2) [1] | d(O1,O2) [1] | d(N2,CA2) | d(O2,H3) | d(O2,N2) | further results |
| --- | --- | --- | --- | --- | --- | --- | --- | --- | --- | --- | --- | --- | --- | --- | --- | --- | --- | --- | --- | --- | --- |
| C[C@H](NC(=O)[C@H]1C[C@H](Cc2ccccc2)CN1)C(=O)NCc1ccc(C(=N)N)cc1.Cl.Cl [1306_2] | 0 | 0 | 0 | 0 | 0 | 0 | 0.74 | 1.14 | 0 | 0 | 0 | 0 | 3.99 | 4.29 | 6.07 | 5.71 | 2.68 | 6.15 | 4.46 | 2.71 | d(CA1,N1) [1]: 3.60; a(CA1, O1, O2) (Table A6-1 pharmacophore angle): 114.80; a(O1, O2, H4) (Table A6-1 pharmacophore angle): 153.92; A(N1, CA1, O1) a) (Table A6-1 pharmacophore angle, all compounds with protonatable center N1 except Methyl-amino-pyridine): 161.00; a(O1, O2, H3): 151.24; a(O1, O2, N2): 153.80; a(O2, N2, CA2): 158.08; Pharmacophore torsion angle a(H4, O1, O2, H3) [2]: 40.51; Pharmacophore torsion angle a(H4, O1, O2, N2) [2]: 134.08; Pharmacophore torsion angle a(N1, CA1, O2, H4) [2]: −77.87; Pharmacophore torsion angle a(O1, H4, O2, CA1) [2]: −12.97; Pharmacophore torsion angle a(O1, O2, N2, CA2) [3]: 124.98 |
| Cc1nc(N)ccc1CNC(=O)[C@H](C)NC(=O)[C@H]1C[C@@H](c2cccc3ccccc23)CCN1.Cl.Cl [1297_4] | 0.31 | 0.18 | 0 | 0 | 0 | 0 | 0.48 | 0.24 | 0 | 0.98 | 0 | 0 | 4.44 | 3.67 | 4.35 | 3.67 | 3.50 | 5.72 | 4.02 | 2.76 | d(C3,CA1) [1]: 2.87; d(CA1,N1)2 [1]: 1.37; d(N2,C2): 1.47; a(C3, CA1, O1) (Table A6-1 pharmacophore angle): 149.60; a(CA1, O1, O2) (Table A6-1 pharmacophore angle): 103.60; a(O1, O2, H4) (Table A6-1 pharmacophore angle): 129.06; a(N1, CA1, O1) b) (Table A6-1 pharmacophore angle, Methyl-amino-pyridine compounds): 174.41; a(O1, O2, H3): 145.24; a(O1, O2, N2): 143.80; a(O2, N2, C2): 131.10; a(O2, N2, CA2): 156.08; Pharmacophore torsion angle a(C3, CA1, O1, H4) [2]: 28.23; Pharmacophore torsion angle a(H4, O1, O2, H3) [2]: 51.40; Pharmacophore torsion angle a(H4, O1, O2, N2) [2]: 142.36; Pharmacophore torsion angle a(N1, CA1, O1, H4) [2]: 26.25; Pharmacophore torsion angle a(O1, H4, O2, CA1) [2]: −89.51; Pharmacophore torsion angle a(O1, O2, N2, C2) [2]: 110.29; Pharmacophore torsion angle a(O1, O2, N2, CA2) [3]: 126.11; Pharmacophore torsion angle a(O1, O2, N2, CA4) [3]: 105.94 |
| C[C@H](NC(=O)[C@H]1C[C@@H](c2ccccc2)CCN1)C(=O)NCc1cc(Cl)ccc1O.Cl [1078_2] | 0.61 | 0 | 0 | 0.46 | 0 | 0 | 1.55 | 0.61 | 0 | 0 | 0 | 0 | 4.69 | 4.62 | 2.19 | 2.44 | 3.25 | 5.72 | 2.53 | 2.72 | d(CA1,C5) [1]: 3.12; d(CA1,O4) [1]: 2.75; d(O4,H2) [1]: 0.97; d(N2,C2): 1.44; a(C5, CA1, O1) (Table A6-1 pharmacophore angle): 159.94; a(CA1, O1, O2) (Table A6-1 pharmacophore angle): 109.26; a(CA1, O4, H2) (Table A6-1 pharmacophore angle): 128.74; a(O1, CA1, O4) (Table A6-1 pharmacophore angle): 65.74; a(O1, O2, H4) (Table A6-1 pharmacophore angle): 91.16; a(O1, O2, H3): 141.98; a(O1, O2, N2): 146.00; a(O2, N2, C2): 128.07; a(O2, N2, CA2): 155.89; Pharmacophore torsion angle a(C5, CA1, O1, H4) [2]: 38.04; Pharmacophore torsion angle a(H4, O1, O2, H3) [2]: −132.87; Pharmacophore torsion angle a(H4, O1, O2, N2) [2]: −119.25; Pharmacophore torsion angle a(O1, H4, O2, CA1) [2]: −57.88; Pharmacophore torsion angle a(O1, O2, N2, C2) [2]: 127.17; Pharmacophore torsion angle a(O1, O2, N2, CA2) [3]: 137.47 |
